Consider two molecules from US12157741B2, “Macrocyclic inhibitors of DYRK1A” (DANA-FARBER CANCER INSTITUTE, INC., priority 2018, dated 2024).

Format in all cases: binding
Assay [1] addresses various enzymes (Homo sapiens, UniProt O95382). Particulars: compound 1 uM. As for the experimental part: (§1) Ambit profiling was conducted in accordance with the manufacturer's instructions.
For assay [2], the target named is various enzymes (Homo sapiens, UniProt P00519). To be noted: compound 1 uM. As for the experimental part:
as §1

Assay [3] concerns the target various enzymes (Homo sapiens, UniProt P17948). To be noted: compound 1 uM. The method, then:
as §1

The target of assay [4] is various enzymes (Homo sapiens, UniProt P30291). To be noted: compound 1 uM. As for the experimental part: as §1
In assay [5] the target is various enzymes (Homo sapiens, UniProt P42336, E545A). The method, then: as §1
The target of assay [6] is various enzymes (Homo sapiens, UniProt P42684). Particulars: compound 1 uM. The method, then:
as §1

Assay [7] concerns the target various enzymes (Homo sapiens, UniProt P42685). To be noted: compound 1 uM. The method, then: as §1
Assay [8] has as its target various enzymes (Homo sapiens, UniProt P53778). Particulars: compound 1 uM. As for the experimental part: as §1
Assay [9] addresses various enzymes (Homo sapiens, UniProt Q6ZN16). To be noted: compound 1 uM. As for the experimental part:
as §1

Assay [10] concerns the target various enzymes (Homo sapiens, UniProt Q8N4C8). Particulars: compound 1 uM. The method, then: as §1
Assay [11] addresses various enzymes (Homo sapiens, UniProt Q96GD4). Particulars: compound 1 uM. As for the experimental part: as §1
For assay [12], the target named is various enzymes (Homo sapiens, UniProt Q9BXA7). To be noted: compound 1 uM. The method, then:
as §1

Assay [13] addresses T1, various enzymes (Homo sapiens, UniProt Q9NRM7).
T1 sequence (Q9NRM7 1-1088): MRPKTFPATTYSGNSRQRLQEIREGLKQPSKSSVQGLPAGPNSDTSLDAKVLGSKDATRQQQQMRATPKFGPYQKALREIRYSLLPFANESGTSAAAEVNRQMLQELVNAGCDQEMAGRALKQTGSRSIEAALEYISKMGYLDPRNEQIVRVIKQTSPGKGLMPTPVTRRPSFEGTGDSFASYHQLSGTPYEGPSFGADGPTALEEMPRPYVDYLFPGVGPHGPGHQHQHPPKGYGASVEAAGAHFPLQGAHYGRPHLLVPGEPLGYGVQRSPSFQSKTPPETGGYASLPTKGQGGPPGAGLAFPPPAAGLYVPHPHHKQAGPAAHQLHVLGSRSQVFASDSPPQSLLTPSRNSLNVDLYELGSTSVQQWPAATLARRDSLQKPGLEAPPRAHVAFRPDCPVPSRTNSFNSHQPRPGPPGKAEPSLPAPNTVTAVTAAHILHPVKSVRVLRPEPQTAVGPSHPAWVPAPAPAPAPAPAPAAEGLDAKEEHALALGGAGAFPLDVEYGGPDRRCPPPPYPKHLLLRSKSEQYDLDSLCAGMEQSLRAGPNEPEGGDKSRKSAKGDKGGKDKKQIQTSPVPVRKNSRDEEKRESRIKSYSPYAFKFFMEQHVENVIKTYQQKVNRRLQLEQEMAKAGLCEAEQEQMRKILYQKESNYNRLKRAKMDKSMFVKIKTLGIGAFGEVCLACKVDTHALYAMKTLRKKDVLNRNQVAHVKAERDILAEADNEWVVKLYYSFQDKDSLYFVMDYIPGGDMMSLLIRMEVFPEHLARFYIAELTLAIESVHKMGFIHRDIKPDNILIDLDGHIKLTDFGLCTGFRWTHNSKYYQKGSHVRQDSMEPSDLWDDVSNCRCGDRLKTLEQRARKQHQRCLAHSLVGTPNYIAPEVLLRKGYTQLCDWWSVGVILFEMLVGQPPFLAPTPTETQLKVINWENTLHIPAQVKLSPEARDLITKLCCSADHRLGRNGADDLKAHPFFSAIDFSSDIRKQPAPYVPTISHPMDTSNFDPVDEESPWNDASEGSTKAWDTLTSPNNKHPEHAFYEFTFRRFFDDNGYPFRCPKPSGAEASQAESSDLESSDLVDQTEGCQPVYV
To be noted: compound 1 uM. The method, then:
as §1

The target in assay [14] is various enzymes (Homo sapiens, UniProt Q9NYY3). To be noted: compound 1 uM. As for the experimental part:
as §1

The target of assay [15] is various enzymes (Homo sapiens, UniProt Q9UEE5). To be noted: compound 1 uM. As for the experimental part: as §1
For assay [16], the target named is various enzymes (Homo sapiens, UniProt Q9UKE5). To be noted: compound 1 uM. The method, then:
as §1

For assay [17], the target named is various enzymes (Homo sapiens, UniProt Q9UQM7). Particulars: compound 1 uM. As for the experimental part:
as §1

For assay [18], the target named is various enzymes (Homo sapiens, UniProt Q9Y6E0). To be noted: compound 1 uM. As for the experimental part:
as §1

Assay [19] deals with various enzymes (Plasmodium falciparum, UniProt P61075). The method, then:
as §1

Like-named read-outs stand apart in the source and are kept apart here.

Sequence of various enzymes (Homo sapiens, UniProt P00519) (P00519 whole entry): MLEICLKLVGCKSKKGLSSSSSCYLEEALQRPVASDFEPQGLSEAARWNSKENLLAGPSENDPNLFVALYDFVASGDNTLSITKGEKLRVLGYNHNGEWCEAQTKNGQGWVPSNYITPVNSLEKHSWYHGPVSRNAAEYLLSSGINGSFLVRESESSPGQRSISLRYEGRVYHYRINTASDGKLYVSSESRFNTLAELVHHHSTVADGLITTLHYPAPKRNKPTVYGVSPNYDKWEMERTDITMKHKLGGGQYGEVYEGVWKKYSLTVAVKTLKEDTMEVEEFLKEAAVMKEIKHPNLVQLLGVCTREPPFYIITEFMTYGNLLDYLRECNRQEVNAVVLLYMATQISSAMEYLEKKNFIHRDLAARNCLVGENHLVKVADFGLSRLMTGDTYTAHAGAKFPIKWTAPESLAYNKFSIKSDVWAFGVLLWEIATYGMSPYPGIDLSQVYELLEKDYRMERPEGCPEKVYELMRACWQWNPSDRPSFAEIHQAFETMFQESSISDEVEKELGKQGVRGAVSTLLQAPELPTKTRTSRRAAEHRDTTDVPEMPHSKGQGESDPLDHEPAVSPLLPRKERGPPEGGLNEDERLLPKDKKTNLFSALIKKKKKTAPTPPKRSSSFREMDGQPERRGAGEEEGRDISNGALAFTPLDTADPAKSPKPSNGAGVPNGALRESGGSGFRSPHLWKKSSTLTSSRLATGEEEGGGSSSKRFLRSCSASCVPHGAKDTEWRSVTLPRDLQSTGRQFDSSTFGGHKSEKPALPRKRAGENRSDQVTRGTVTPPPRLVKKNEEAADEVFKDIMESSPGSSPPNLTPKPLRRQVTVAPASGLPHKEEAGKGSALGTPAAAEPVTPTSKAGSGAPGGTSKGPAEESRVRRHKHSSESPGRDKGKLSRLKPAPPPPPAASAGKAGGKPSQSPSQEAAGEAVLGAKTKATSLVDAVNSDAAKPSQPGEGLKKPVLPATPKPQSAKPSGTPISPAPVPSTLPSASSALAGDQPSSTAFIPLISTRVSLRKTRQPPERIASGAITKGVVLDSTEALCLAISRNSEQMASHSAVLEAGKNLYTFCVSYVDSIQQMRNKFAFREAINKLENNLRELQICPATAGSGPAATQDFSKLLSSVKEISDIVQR
Sequence of various enzymes (Homo sapiens, UniProt P42684) (P42684 whole entry): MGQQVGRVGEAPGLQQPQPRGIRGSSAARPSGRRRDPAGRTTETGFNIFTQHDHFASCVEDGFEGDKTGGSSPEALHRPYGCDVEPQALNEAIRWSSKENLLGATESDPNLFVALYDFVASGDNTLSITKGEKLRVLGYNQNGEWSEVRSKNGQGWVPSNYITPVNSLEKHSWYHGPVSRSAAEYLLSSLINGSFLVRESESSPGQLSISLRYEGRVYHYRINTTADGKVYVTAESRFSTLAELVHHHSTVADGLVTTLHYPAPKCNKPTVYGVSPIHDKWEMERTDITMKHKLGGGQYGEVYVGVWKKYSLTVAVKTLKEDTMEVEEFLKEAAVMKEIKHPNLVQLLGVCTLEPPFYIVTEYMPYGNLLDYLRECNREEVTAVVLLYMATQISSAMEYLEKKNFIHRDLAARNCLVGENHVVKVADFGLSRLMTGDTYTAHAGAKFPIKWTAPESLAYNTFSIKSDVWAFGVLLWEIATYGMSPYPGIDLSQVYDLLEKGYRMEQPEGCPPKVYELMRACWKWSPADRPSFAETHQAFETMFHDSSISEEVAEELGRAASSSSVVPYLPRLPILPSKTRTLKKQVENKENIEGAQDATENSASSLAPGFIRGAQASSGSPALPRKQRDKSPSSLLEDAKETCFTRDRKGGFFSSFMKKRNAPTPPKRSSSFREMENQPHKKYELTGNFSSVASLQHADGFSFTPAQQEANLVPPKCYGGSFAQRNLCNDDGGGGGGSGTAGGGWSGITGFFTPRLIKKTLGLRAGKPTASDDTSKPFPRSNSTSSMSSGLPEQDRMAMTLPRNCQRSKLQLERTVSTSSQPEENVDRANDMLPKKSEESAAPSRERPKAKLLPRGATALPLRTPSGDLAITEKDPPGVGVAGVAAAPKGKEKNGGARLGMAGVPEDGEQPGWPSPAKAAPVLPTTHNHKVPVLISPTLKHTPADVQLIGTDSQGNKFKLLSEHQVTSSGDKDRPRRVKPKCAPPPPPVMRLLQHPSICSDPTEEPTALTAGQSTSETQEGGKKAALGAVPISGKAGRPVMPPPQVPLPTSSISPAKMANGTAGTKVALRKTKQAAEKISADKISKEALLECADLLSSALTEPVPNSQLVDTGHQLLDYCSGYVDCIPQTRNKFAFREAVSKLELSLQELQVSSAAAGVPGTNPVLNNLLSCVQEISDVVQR
Sequence of various enzymes (Homo sapiens, UniProt Q8N4C8) (Q8N4C8 whole entry): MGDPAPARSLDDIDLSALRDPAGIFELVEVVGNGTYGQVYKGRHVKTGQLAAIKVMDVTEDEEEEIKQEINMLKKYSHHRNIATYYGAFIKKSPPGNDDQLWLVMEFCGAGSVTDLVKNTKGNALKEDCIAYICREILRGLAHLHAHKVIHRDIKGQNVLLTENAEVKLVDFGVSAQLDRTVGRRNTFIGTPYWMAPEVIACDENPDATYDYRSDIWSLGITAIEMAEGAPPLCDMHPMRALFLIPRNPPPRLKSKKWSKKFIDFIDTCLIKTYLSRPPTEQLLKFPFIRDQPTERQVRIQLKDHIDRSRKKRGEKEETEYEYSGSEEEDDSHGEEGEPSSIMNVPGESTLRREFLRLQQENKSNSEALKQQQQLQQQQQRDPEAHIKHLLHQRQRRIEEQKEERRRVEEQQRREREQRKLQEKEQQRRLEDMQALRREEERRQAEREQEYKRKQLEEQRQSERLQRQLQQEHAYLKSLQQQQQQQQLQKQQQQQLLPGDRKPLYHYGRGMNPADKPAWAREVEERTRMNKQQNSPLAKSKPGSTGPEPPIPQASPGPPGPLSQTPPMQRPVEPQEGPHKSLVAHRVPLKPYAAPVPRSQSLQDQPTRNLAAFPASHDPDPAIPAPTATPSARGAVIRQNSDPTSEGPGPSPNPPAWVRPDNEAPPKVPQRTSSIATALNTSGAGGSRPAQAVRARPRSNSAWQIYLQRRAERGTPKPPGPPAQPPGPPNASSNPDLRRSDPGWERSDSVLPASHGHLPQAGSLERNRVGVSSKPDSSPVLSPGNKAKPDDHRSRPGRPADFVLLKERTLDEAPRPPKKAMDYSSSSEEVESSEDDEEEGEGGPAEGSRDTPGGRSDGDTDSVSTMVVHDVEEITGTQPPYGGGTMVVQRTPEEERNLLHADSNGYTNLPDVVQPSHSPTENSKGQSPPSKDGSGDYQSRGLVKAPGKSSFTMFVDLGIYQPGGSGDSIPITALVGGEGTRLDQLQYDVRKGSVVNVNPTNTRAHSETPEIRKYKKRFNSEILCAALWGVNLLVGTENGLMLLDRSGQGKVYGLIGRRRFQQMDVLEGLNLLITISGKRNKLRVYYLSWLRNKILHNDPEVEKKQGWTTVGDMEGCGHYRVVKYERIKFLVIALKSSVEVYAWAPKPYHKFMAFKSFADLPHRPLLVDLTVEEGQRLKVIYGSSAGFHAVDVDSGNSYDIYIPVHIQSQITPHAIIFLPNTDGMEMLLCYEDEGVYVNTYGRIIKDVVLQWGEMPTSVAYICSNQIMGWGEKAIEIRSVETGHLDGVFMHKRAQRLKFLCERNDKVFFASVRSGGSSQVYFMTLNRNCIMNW
Sequence of various enzymes (Homo sapiens, UniProt Q6ZN16) (Q6ZN16 whole entry): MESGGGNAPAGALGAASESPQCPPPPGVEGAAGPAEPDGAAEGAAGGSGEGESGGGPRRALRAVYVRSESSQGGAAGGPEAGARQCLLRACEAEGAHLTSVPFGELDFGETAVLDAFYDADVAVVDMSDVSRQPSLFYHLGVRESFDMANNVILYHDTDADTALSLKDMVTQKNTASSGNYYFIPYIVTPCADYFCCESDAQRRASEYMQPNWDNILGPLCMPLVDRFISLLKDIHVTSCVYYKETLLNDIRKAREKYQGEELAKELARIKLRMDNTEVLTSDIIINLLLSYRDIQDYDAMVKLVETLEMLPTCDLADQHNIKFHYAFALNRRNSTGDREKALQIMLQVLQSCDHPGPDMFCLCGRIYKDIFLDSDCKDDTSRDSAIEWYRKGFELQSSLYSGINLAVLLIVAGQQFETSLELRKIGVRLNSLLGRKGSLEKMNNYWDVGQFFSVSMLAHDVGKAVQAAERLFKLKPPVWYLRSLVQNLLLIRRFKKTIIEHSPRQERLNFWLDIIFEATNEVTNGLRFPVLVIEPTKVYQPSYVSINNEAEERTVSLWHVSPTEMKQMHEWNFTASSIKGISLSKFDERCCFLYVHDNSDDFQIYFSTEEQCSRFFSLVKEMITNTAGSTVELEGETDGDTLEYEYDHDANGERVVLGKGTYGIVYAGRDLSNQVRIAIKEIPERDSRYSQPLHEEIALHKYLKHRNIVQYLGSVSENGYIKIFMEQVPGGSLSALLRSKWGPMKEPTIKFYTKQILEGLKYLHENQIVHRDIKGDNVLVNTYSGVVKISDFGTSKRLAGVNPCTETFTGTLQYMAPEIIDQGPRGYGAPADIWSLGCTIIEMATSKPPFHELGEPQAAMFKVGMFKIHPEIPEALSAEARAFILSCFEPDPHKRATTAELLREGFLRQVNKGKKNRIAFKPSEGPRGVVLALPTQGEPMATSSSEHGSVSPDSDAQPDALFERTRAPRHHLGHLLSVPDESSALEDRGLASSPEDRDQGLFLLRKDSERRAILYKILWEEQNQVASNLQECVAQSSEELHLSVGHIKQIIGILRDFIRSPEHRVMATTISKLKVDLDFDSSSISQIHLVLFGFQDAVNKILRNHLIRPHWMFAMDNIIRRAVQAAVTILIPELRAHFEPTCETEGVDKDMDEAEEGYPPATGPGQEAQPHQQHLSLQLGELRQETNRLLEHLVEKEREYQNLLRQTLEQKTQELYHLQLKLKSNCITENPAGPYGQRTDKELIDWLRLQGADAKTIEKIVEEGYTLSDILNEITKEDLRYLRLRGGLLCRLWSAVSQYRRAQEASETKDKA

For `CC(C)N1Cc2nn(C)cc2-c2cnc3[nH]cc(c3c2)-c2cn(nc2C(F)(F)F)CCCC1=O` [Compound 45, (Z)-5-isopropyl-31-methyl-13-(trifluoromethyl)-11H,21H,31H-5-aza-2(3,5)-pyrrolo[2,3-b]pyridina-1(4,1),3(4,3)-dipyrazolacyclononaphan-6-one], the “Ambit profiling: ASK2” value on various enzymes [1] is listed as 54. At various enzymes [2], the “Ambit profiling: ABL1-nonphosphorylated” value was 20 and the “Ambit profiling: ABL1-phosphorylated” value worked out at 9. For the same molecule, the “Ambit profiling: FLT1” value at various enzymes [3] was 5.4. Also, the “Ambit profiling: WEE1” value on various enzymes [4] was found to be 73. At various enzymes [5] (compound 1 uM), the “Ambit profiling: PIK3CA(E545A)” value was 56. For the same molecule, at various enzymes [6], the “Ambit profiling: ABL2” value worked out at 42. On various enzymes [7], the “Ambit profiling: FRK” value was 11. For the same molecule, the “Ambit profiling: p38-gamma” value on various enzymes [8] is on record as 74. Also, the “Ambit profiling: MAP3K15” value at various enzymes [9] was 84. On various enzymes [10], the “Ambit profiling: MINK” value came out at 1.8. The “Ambit profiling: AURKB” value at various enzymes [11] is given as 5.7. On various enzymes [12], the “Ambit profiling: TSSK1B” value stood at 83. At various enzymes [13], the “Ambit profiling: LATS2” value stood at 100. On various enzymes [14], the “Ambit profiling: PLK2” value is on record as 90. For the same molecule, at various enzymes [15], the “Ambit profiling: DRAK1” value is listed as 100. In addition, the “Ambit profiling: TNIK” value at various enzymes [16] was 5.6. For the same molecule, the “Ambit profiling: CAMK2A” value on various enzymes [17] stood at 7.7. At various enzymes [18], the “Ambit profiling: MST3” value is reported as 57. Besides, the “Ambit profiling: PFPK5(P. falciparum)” value on various enzymes [19] (compound 1 uM) is 82.
For the molecule `COc1c2c(nn1C)CN(C(C)C)C(=O)CCCn1cc(c(C(F)(F)F)n1)-c1c[nH]c3ncc-2cc13` [Compound 50, (Z)-5-isopropyl-35-methoxy-31-methyl-13-(trifluoromethyl)-11H,21H,31H-5-aza-2(3,5)-pyrrolo[2,3-b]pyridina-1(4,1),3(4,3)-dipyrazolacyclononaphan-6-one], the “Ambit profiling: ASK2” value at various enzymes [1] stood at 98. In addition, on various enzymes [2], the “Ambit profiling: ABL1-nonphosphorylated” value is given as 11 and the “Ambit profiling: ABL1-phosphorylated” value turned out to be 3.8. For the same molecule, the “Ambit profiling: FLT1” value on various enzymes [3] stood at 5.9. Moreover, the “Ambit profiling: WEE1” value on various enzymes [4] was 38. The “Ambit profiling: PIK3CA(E545A)” value at various enzymes [5] is reported as 82. In addition, the “Ambit profiling: ABL2” value on various enzymes [6] is given as 22. Further, the “Ambit profiling: FRK” value on various enzymes [7] stood at 10. Also, the “Ambit profiling: p38-gamma” value at various enzymes [8] came to 75. In addition, on various enzymes [9], the “Ambit profiling: MAP3K15” value is listed as 76. The “Ambit profiling: MINK” value on various enzymes [10] is given as 0. Further, the “Ambit profiling: AURKB” value at various enzymes [11] is 18. Also, on various enzymes [12], the “Ambit profiling: TSSK1B” value came to 43. Also, at various enzymes [13], the “Ambit profiling: LATS2” value came to 97. Also, the “Ambit profiling: PLK2” value on various enzymes [14] is 95. For the same molecule, the “Ambit profiling: DRAK1” value at various enzymes [15] stood at 100. For the same molecule, the “Ambit profiling: TNIK” value at various enzymes [16] turned out to be 13. Moreover, on various enzymes [17], the “Ambit profiling: CAMK2A” value is reported as 12. The “Ambit profiling: MST3” value at various enzymes [18] stood at 63. Further, the “Ambit profiling: PFPK5(P. falciparum)” value on various enzymes [19] was 79.
